Test results taken from PubChem BioAssay (NCI).
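Step 1: Grow cells in 96-well plates. Step 2: Expose to compound for 48 hours at 5 concentrations. Step 3: Interpolate endpoints linearly; if unreached, use highest concentration. TGI denotes the concentration required for complete inhibition of growth.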

Assays:
Test in all cases: NCI anticancer screen, dose series, 48 h
SW-620 colon = system: SW-620 colon
OVCAR-5 ovarian = system: OVCAR-5 ovarian
MALME-3M melanoma = system: MALME-3M melanoma
HOP-92 NSCLC = system: HOP-92 NSCLC
MCF7 breast = system: MCF7 breast
SNB-75 CNS = system: SNB-75 CNS
SK-MEL-2 melanoma = system: SK-MEL-2 melanoma
SNB-19 CNS = system: SNB-19 CNS
MDA-MB-231 breast = system: MDA-MB-231 breast
SK-OV-3 ovarian = system: SK-OV-3 ovarian
OVCAR-4 ovarian = system: OVCAR-4 ovarian
BT-549 breast = system: BT-549 breast
KM20L2 colon = system: KM20L2 colon
M14 melanoma = system: M14 melanoma
NCI-H23 lung = system: NCI-H23 lung
HOP-18 NSCLC = system: HOP-18 NSCLC
COLO 205 colon = system: COLO 205 colon
UACC-257 melanoma = system: UACC-257 melanoma
MOLT-4 leukemia = system: MOLT-4 leukemia
SK-MEL-28 melanoma = system: SK-MEL-28 melanoma
LXFL 529 NSCLC = system: LXFL 529 NSCLC
EKVX NSCLC = system: EKVX NSCLC
786-0 renal = system: 786-0 renal
NCI-H522 lung = system: NCI-H522 lung
DMS 273 small cell lung = system: DMS 273 small cell lung
MDA-N = system: MDA-N
HS 578T breast = system: HS 578T breast
SK-MEL-5 melanoma = system: SK-MEL-5 melanoma
PC-3 prostate = system: PC-3 prostate
HT29 colon = system: HT29 colon
RPMI-8226 leukemia = system: RPMI-8226 leukemia
A498 renal = system: A498 renal
HL-60(TB) leukemia = system: HL-60(TB) leukemia
TK-10 renal = system: TK-10 renal
U251 CNS = system: U251 CNS
A549 NSCLC = system: A549 NSCLC
M19-MEL melanoma = system: M19-MEL melanoma
ACHN renal = system: ACHN renal
DU-145 prostate = system: DU-145 prostate
LOX IMVI melanoma = system: LOX IMVI melanoma
UO-31 renal = system: UO-31 renal
SNB-78 CNS = system: SNB-78 CNS
NCI-H226 lung = system: NCI-H226 lung
HCT-116 colon = system: HCT-116 colon
SF-295 CNS = system: SF-295 CNS
HCT-15 colon = system: HCT-15 colon
K-562 leukemia = system: K-562 leukemia
T-47D breast = system: T-47D breast
IGROV1 ovarian = system: IGROV1 ovarian
KM12 colon = system: KM12 colon
OVCAR-3 ovarian = system: OVCAR-3 ovarian
UACC-62 melanoma = system: UACC-62 melanoma
SN12C renal = system: SN12C renal
HCC-2998 colon = system: HCC-2998 colon
SF-539 CNS = system: SF-539 CNS
RXF 393 renal = system: RXF 393 renal
SF-268 CNS = system: SF-268 CNS
SR leukemia = system: SR leukemia
OVCAR-8 ovarian = system: OVCAR-8 ovarian
DLD-1 colon = system: DLD-1 colon
CCRF-CEM leukemia = system: CCRF-CEM leukemia
RXF-631 renal = system: RXF-631 renal
HOP-62 NSCLC = system: HOP-62 NSCLC
NCI-H460 lung = system: NCI-H460 lung
DMS 114 small cell lung = system: DMS 114 small cell lung
CAKI-1 renal = system: CAKI-1 renal

## COc1cccc2c1C(=O)c1c(O)c3c(c(O)c1C2=O)C[C@@](O)(C(=O)CO)C[C@@H]3OC1CC(N)C(OC)C(C)O1 (stereo partly drawn)
SW-620 colon
  TGI: 4.05 µM
OVCAR-5 ovarian
  TGI: 1.34 µM
MALME-3M melanoma
  TGI: 0.283 µM
HOP-92 NSCLC
  TGI: 0.631 µM
MCF7 breast
  TGI: 0.41 µM
SNB-75 CNS
  TGI: 0.346 µM
SK-MEL-2 melanoma
  TGI: 0.407 µM
SNB-19 CNS
  TGI: > 15.8 µM
MDA-MB-231 breast
  TGI: 7.01 µM
SK-OV-3 ovarian
  TGI: 4.41 µM
OVCAR-4 ovarian
  TGI: 9.67 µM
BT-549 breast
  TGI: 1.47 µM
KM20L2 colon
  TGI: 4.83 µM
M14 melanoma
  TGI: 0.996 µM
NCI-H23 lung
  TGI: 0.457 µM
HOP-18 NSCLC
  TGI: 0.977 µM
COLO 205 colon
  TGI: 1.94 µM
UACC-257 melanoma
  TGI: 1.34 µM
MOLT-4 leukemia
  TGI: 0.0517 µM
SK-MEL-28 melanoma
  TGI: 1.9 µM
LXFL 529 NSCLC
  TGI: 0.432 µM
EKVX NSCLC
  TGI: 9.35 µM
786-0 renal
  TGI: 18.2 µM
NCI-H522 lung
  TGI: 0.45 µM
DMS 273 small cell lung
  TGI: 1.4 µM
MDA-N
  TGI: 36.2 µM
HS 578T breast
  TGI: 1.14 µM
SK-MEL-5 melanoma
  TGI: 0.189 µM
PC-3 prostate
  TGI: 1.64 µM
HT29 colon
  TGI: 1.66 µM
RPMI-8226 leukemia
  TGI: 0.374 µM
A498 renal
  TGI: 0.582 µM
HL-60(TB) leukemia
  TGI: 0.388 µM
TK-10 renal
  TGI: 36.6 µM
U251 CNS
  TGI: 0.441 µM
A549 NSCLC
  TGI: 18.7 µM
M19-MEL melanoma
  TGI: 0.237 µM
ACHN renal
  TGI: 0.765 µM
DU-145 prostate
  TGI: > 100 µM
LOX IMVI melanoma
  TGI: 0.181 µM
UO-31 renal
  TGI: 1.41 µM
SNB-78 CNS
  TGI: 16.9 µM
NCI-H226 lung
  TGI: 0.47 µM
HCT-116 colon
  TGI: > 100 µM
SF-295 CNS
  TGI: 1.98 µM
HCT-15 colon
  TGI: 13.2 µM
K-562 leukemia
  TGI: 0.0483 µM
T-47D breast
  TGI: 1.73 µM
IGROV1 ovarian
  TGI: 16.4 µM
KM12 colon
  TGI: 0.931 µM
OVCAR-3 ovarian
  TGI: 10.6 µM
UACC-62 melanoma
  TGI: 0.227 µM
SN12C renal
  TGI: 0.644 µM
HCC-2998 colon
  TGI: 0.763 µM
SF-539 CNS
  TGI: 0.449 µM
RXF 393 renal
  TGI: 0.825 µM
SF-268 CNS
  TGI: 1.97 µM
SR leukemia
  TGI: 0.364 µM
OVCAR-8 ovarian
  TGI: 1.21 µM
DLD-1 colon
  TGI: 3.37 µM
CCRF-CEM leukemia
  TGI: 0.176 µM
RXF-631 renal
  TGI: 0.747 µM
HOP-62 NSCLC
  TGI: 0.354 µM
NCI-H460 lung
  TGI: 0.217 µM

## CC(=O)OC1(C#N)CC2OC1C1C2N=NN1C(=O)OC(C)(C)C (stereo not drawn)
SW-620 colon
  TGI: > 100 µM
OVCAR-5 ovarian
  TGI: > 100 µM
MALME-3M melanoma
  TGI: 48.3 µM
HOP-92 NSCLC
  TGI: 75.3 µM
DMS 114 small cell lung
  TGI: 65.6 µM
SNB-75 CNS
  TGI: > 100 µM
SK-MEL-2 melanoma
  TGI: 68.9 µM
OVCAR-4 ovarian
  TGI: > 100 µM
KM20L2 colon
  TGI: > 100 µM
M14 melanoma
  TGI: 46.6 µM
NCI-H23 lung
  TGI: 77.7 µM
HOP-18 NSCLC
  TGI: > 100 µM
COLO 205 colon
  TGI: > 100 µM
UACC-257 melanoma
  TGI: > 100 µM
MOLT-4 leukemia
  TGI: > 100 µM
SK-MEL-28 melanoma
  TGI: 81.9 µM
LXFL 529 NSCLC
  TGI: > 100 µM
CAKI-1 renal
  TGI: > 100 µM
EKVX NSCLC
  TGI: > 100 µM
NCI-H522 lung
  TGI: > 100 µM
DMS 273 small cell lung
  TGI: 73.8 µM
SK-MEL-5 melanoma
  TGI: > 100 µM
HT29 colon
  TGI: > 100 µM
RPMI-8226 leukemia
  TGI: > 100 µM
TK-10 renal
  TGI: > 100 µM
A549 NSCLC
  TGI: > 100 µM
M19-MEL melanoma
  TGI: > 100 µM
ACHN renal
  TGI: > 100 µM
LOX IMVI melanoma
  TGI: 69.4 µM
UO-31 renal
  TGI: > 100 µM
SNB-78 CNS
  TGI: 73.2 µM
HCT-116 colon
  TGI: 28.6 µM
HCT-15 colon
  TGI: 55.9 µM
K-562 leukemia
  TGI: > 100 µM
IGROV1 ovarian
  TGI: > 100 µM
OVCAR-3 ovarian
  TGI: > 100 µM
UACC-62 melanoma
  TGI: 45.9 µM
SN12C renal
  TGI: > 100 µM
HCC-2998 colon
  TGI: > 100 µM
SF-539 CNS
  TGI: 52.7 µM
RXF 393 renal
  TGI: > 100 µM
SF-268 CNS
  TGI: > 100 µM
SR leukemia
  TGI: > 100 µM
OVCAR-8 ovarian
  TGI: > 100 µM
DLD-1 colon
  TGI: > 100 µM
CCRF-CEM leukemia
  TGI: > 100 µM
RXF-631 renal
  TGI: > 100 µM
HOP-62 NSCLC
  TGI: > 100 µM
NCI-H460 lung
  TGI: > 100 µM
